Laboratory results from patent US20100204219A1, “AROMATIC 1,4-DI-CARBOXYLAMIDES AND THEIR USE” (priority 2006, published 2010).

What was measured:
Assay type in all cases: binding
Conditions in all cases: Example 1
[1] = target: T1, βCat-BCL9 (beta-Catenin/BCL9-BCL9L interaction) (Homo sapiens, UniProt P35222); test: ELISA based protein-protein interaction assay, βCat-BCL9
T1 sequence (P35222 1-781): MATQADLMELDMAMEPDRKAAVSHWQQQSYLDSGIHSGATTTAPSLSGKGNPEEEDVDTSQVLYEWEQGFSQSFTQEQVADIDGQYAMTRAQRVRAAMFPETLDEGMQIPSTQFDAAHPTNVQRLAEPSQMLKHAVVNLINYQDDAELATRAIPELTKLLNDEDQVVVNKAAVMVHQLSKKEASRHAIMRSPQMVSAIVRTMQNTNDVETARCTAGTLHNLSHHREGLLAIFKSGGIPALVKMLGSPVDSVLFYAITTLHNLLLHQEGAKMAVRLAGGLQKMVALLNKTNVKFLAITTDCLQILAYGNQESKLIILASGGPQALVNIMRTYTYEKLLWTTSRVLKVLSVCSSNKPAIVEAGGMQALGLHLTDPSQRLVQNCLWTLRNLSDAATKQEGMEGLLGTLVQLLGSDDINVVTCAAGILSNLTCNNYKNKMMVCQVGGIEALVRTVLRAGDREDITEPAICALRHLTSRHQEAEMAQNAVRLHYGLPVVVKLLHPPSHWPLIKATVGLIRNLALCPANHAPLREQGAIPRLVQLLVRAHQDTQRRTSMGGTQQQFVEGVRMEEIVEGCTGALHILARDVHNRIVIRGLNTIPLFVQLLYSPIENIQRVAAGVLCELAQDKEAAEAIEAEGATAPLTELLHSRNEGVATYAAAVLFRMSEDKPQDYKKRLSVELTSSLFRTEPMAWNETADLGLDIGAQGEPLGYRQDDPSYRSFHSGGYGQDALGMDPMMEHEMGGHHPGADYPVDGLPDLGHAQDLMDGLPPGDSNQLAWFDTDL
From the text: (§1) cDNAs including the binding domains of Lgs and beta-Catenin were fused down-stream of glutathione-S-transferase (GST) cDNA in pGEX-4T inducible bacterial expression vector (Pharmacia). Similar recombinant DNA constructs were generated in the pET-32a(+) vector (Novagen) for expression of fusion protein containing the Thioredoxine-6His tag at their N-terminus. Fusion proteins were produced in BL21 bacteria (e.g. Stratagene) following manufacturer's recommendation.
(§2) To isolate the produced fusions protein, bacteria were ground in aluminum oxide (Sigma, A2039) and the resulting powder extracted in lysis buffer (140 mM NaCl, 10 mM Na2HPO4, 1.8 mM KH2PO4, 2.7 mM KCl, 1 mM EDTA, 1% Triton-X-100, 1 mM DTT and protease inhibitors) under rotation for 30 minutes. Supernatants were cleared by centrifugation then filtered on a 0.45 μm membrane before protein purification. For GST tagged protein, lysate were processed on glutathione agarose beads following manufacturer's recommendation (Amersham Pharmacia) and purified proteins eluted in 50 mM Tris-Cl, 10 mM reduced glutathione pH8.0. For thioredoxine-6His fusions, tagged proteins were purified from the lysate on a nickel chelating column (e.g. Hitrap chelating, G.E. Healthcare) using an HPLC system (e.g. Akta Prime, G.E. Healthcare) and eluted under increasing concentration of imidazole. The purified proteins solution was dialyzed against PBS before use. The quality of the preparations was checked by SDS-gel electrophoresis by standard methods well known by persons skilled in the art.
(§3) Compound preparation: Compounds can be prepared as 25 mM stock in DMSO and diluted in DMSO to reach final test concentrations of up to 100 μM. Final DMSO concentration in the assay is 5%.
(§4) 100 μl of GST fusion protein (e.g. GST-βCatenin) diluted to the appropriate concentration in phosphate buffer saline are added per well to a 96 well plate with high protein binding capacity (e.g. Nunc Maxisorp) and placed at 4° C. overnight. The following day the liquid in the wells is discarded and 150 μl 3% bovine serum albumin (BSA) in PBS are added to each well and incubated at room temperature for 2 hours under moderate shaking. This solution is then discarded and each well washed twice with 200 μl PBS. After carefully discarding the second wash, a mixture of 5 μl compound dilution and 95 μl 6His fusion protein (e.g. 6His-Bcl9) diluted to the appropriate concentration in PBS is added to each well. The plate is then incubated for 1 hour at room temperature under moderate shaking. This protein solution is then discarded and the wells washed 3 times with 200 μl 0.1% Tween-20 solution in PBS. After carefully discarding the final wash, 100 μl of anti 6His antibody conjugated to the horse-radish peroxidase (e.g. Roche antibody 11965085001) at the appropriate dilution in 1% BSA in PBS is added to the wells and the plate incubated for 1 hour at room temperature under moderate shaking. This solution is then discarded and the wells washed 3 times with 200 μl 0.1% Tween-20 solution in PBS. After carefully discarding the final wash, 100 μl of HRP substrate […] (TMB) in solution (e.g. Sigma T0440) is added to the wells and the plate incubated up to 30 minutes in the dark at room temperature. The reaction is stopped by addition of 100 μl of 2N HCl to each well and the optical density is measured at 450 nm and 630 nm.

[2] = target: T2, βCat-TCF4 (Tcf-4-βCatenin interaction) (Homo sapiens, UniProt P35222); test: ELISA based protein-protein interaction assay, βCat-TCF4
T2 sequence (P35222 141-664 limits assumed): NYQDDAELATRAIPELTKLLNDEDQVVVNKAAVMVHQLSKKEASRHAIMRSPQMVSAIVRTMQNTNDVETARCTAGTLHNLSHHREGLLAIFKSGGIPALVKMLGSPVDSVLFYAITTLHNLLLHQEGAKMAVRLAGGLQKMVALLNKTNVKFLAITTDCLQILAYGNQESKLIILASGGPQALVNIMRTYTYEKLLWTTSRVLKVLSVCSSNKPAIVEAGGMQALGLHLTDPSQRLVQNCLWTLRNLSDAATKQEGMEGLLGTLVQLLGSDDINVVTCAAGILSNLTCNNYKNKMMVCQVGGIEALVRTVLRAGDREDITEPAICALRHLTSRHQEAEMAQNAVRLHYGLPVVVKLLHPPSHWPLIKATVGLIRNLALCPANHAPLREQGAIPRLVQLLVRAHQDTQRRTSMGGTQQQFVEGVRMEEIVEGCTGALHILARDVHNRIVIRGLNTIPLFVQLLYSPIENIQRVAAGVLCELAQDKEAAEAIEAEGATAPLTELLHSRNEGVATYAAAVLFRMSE
From the text: as §1, §2, §3, §4

[3] = target: T3, βCat-ECad (E-Cadherin-βCatenin interaction) (Homo sapiens, UniProt P35222); test: ELISA based protein-protein interaction assay, βCat-ECad
T3 sequence (P35222 134-671 limits assumed): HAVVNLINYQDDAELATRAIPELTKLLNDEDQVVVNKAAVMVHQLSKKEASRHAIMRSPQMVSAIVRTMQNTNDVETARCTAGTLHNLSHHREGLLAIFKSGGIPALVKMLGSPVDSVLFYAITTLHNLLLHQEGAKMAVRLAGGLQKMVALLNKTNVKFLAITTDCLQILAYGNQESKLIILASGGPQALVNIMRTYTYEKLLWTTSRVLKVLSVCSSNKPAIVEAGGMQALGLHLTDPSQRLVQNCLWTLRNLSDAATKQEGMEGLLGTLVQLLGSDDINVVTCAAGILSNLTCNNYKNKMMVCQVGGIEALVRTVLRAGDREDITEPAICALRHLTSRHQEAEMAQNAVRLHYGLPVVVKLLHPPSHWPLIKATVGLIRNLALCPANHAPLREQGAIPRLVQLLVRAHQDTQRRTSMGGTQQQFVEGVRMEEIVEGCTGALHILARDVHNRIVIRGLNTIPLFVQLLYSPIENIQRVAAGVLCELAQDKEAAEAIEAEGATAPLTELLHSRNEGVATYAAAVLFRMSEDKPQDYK
From the text: as §1, §2, §3, §4

SMILES	IC50 [1] [µM]	IC50 [2] [µM]	IC50 [3] [µM]
COC(=O)c1cc(NC(=O)c2ccc(C(=O)Nc3cc(C(=O)OC)cc(C(=O)OC)c3)nc2)cc(C(=O)OC)c1 [TGC0000160]	38	> 100	–
COc1cccc(NC(=O)c2ccc(C(=O)Nc3cccc(OC)c3)nc2)c1 [TGC0011280]	> 100	23	21
CC(=O)c1ccc(NC(=O)c2ccc(C(=O)Nc3ccc(C(C)=O)cc3)nc2)cc1 [TGC0011285]	6	> 10	> 10
COC(=O)c1ccc(NC(=O)c2ccc(C(=O)Nc3ccc(C(=O)OC)cc3)nc2)cc1 [TGC0011288]	2	> 10	> 10
COc1ccc(CCNC(=O)c2ccc(C(=O)NCCc3ccc(OC)c(OC)c3)nc2)cc1OC [TGC0011342]	> 50	> 50	> 50
Cc1nnc(NC(=O)c2ccc(C(=O)Nc3nnc(C)s3)nc2)s1 [TGC0011344]	86	119	41.4
O=C(Nc1cccnc1)c1ccc(C(=O)Nc2cccnc2)nc1 [TGC0011423]	29	> 100	> 100
O=C(NCc1ccco1)c1ccc(C(=O)NCc2ccco2)nc1 [TGC0011428]	> 50	> 50	> 50
O=C(NCc1ccc2c(c1)OCO2)c1ccc(C(=O)NCc2ccc3c(c2)OCO3)nc1 [TGC0011430]	> 50	> 50	> 50
COc1ccc(OC)c(CCNC(=O)c2ccc(C(=O)NCCc3cc(OC)ccc3OC)nc2)c1 [TGC0011457]	> 100	–	–
CC(=O)Nc1ccc(-c2cnc(-c3ccc(NC(C)=O)cc3)nc2)cc1 [TGC0011524]	> 100	–	–
CC(C)(C)C(=O)Nc1ccc(-c2cnc(-c3ccc(NC(=O)C(C)(C)C)cc3)nc2)cc1 [TGC0011525]	> 10	–	–
O=C(Nc1ccc(-c2cnc(-c3ccc(NC(=O)C(F)(F)F)cc3)nc2)cc1)C(F)(F)F [TGC0011526]	> 100	–	–
CC(C)(C)C(=O)Nc1cccc(C(=O)Nc2ccc(-c3cnc(-c4ccc(NC(=O)c5cccc(NC(=O)C(C)(C)C)c5)cc4)nc3)cc2)c1 [TGC0011527]	> 10	–	–
COc1cccc(C(=O)Nc2ccc(-c3cnc(-c4ccc(NC(=O)c5cccc(OC)c5)cc4)nc3)cc2)c1 [TGC0011528]	> 50	> 50	> 50
Cc1ccccc1C(=O)Nc1ccc(-c2cnc(-c3ccc(NC(=O)c4ccccc4C)cc3)nc2)cc1 [TGC0011529]	> 100	–	–
O=C(Nc1ccc(-c2cnc(-c3ccc(NC(=O)c4ccccc4Cl)cc3)nc2)cc1)c1ccccc1Cl [TGC0011530]	> 10	–	–
